Entries after “also recorded” stand apart in the source; their conditions may differ.
Tests used:
[1] = test system: Glioblastoma cell line (GBM39); assay: GBM39 cells treated with erlotinib, FISH for MYC amplification; assay type: cell-based; details: erlotinib 1 uM, 4 weeks, vs control cells
Protocol: Glioblastoma cell line (GBM39) was assessed for ecDNA in untreated samples and cells treated with the EGFR inhibitor erlotinib (1 uM). Cells were treated for 4 weeks and then assessed by FISH for amplification of MYC ecDNA. […] Cells treated with the erlotinib developed brightly staining MYC amplification on ecDNA. Amplification of MYC on ecDNA and on HSR was quantified from the FISH images in control and treated cells.

[2] = test system: lung cancer cell line (H2170); assay: H2170 cells treated with paclitaxel, ABCB1 transporter amplified ecDNA (FISH, qPCR); assay type: cell-based
Protocol: The lung cancer cell line (H2170) was assessed for the presence of oncogene-amplified ecDNA. […] The cell line was treated with paclitaxel and the presence and level of ecDNA was assessed for ABCB1 transporter amplified ecDNA. […] Gene copy number for the ABCB1 transporter was assessed by qPCR.

[3] = test system: colorectal cancer line COLO320 HSR; assay: COLO320 HSR cells treated with paclitaxel, ecDNA by metaphase FISH and PCR gene panel
[4] = test system: gastric cancer cell line SNU16; assay: SNU16 cells treated with infigratinib over about 80 days; relative copy number by metaphase DAPI/FISH; assay type: cell-based
Protocol: A gastric cancer cell line SNU16 was assessed for the presence of ecDNA using metaphase DAPI/FISH using probes to detect MYC, FGFR2 and EGFR. […] SNU16 cells were then treated with the FGFR inhibitor infigratinib over the course of about 80 days. ecDNA was assessed by metaphase DAPI/FISH and relative copy number for MYC, FGFR2 and EGFR was tracked at day 0 and 5 additional time points.

[5] = test system: gastric cancer CDX SNU16 mouse model; assay: gastric cancer CDX SNU16 mouse model, tumor growth over 50 days and copy number in tumors; assay type: in vivo, mice
Protocol: To assess the effect of an ecDTx agent on gastric cancer and ecDNA development, a gastric cancer CDX SNU16 mouse model was treated with vehicle only, with infigratinib alone (15 mg/kg PO;QD), the ecDTx CHK1 inhibitor (20 mg/kg SQ;Q2D) or with a combination of infigratinib (15 mg/kg PO;QD) and the ecDTx CHK1 inhibitor (20 mg/kg SQ;Q2D). Tumor growth in the animals was monitored over 50 days. […] The effect of the combination was further assessed by evaluating copy number for MYC and FGFR2 in the tumors from the treated mice. […] FGFR2 amplification was abrogated in the presence of the ecDTx agent alone or when used in combination with infigratinib. The presence of the FGRF2 and MYC amplification on ecDNA was validated by FISH (FIG. 3C).

gastric cancer CDX model = assay: gastric cancer CDX model, 7-day multi-dosing experiment; assay type: in vivo, mice
Protocol: The ecDTx agent was further tested in the gastric cancer CDX model in a 7-day multi-dosing experiment. Mice were treated with vehicle only (PO; QDx 7 days), with infigratinib alone (15 mg/kg PO;QD x 7 days), the ecDTx CHK1 inhibitor (20 mg/kg SC;Q2D x 4 doses) or with a combination of infigratinib and the ecDTx CHK1 inhibitor (same dosing as with individual agents).
Tumor volume at day 6 is shown in the box and whisker graph in FIG. 4B. […] Copy number for MYC and FGFR2 was evaluated in the tumors from the treated mice. […] This increase was abrogated in the presence of the ecDTx agent. MYC and FGFR2 expression was also evaluated in the tumors of the treated mice (FIG. 4D).

[6] = tumors from treated mice, 50-day study

## C#Cc1cccc(Nc2ncnc3cc(OCCOC)c(OCCOC)cc23)c1 [erlotinib]
[1]
  MYC amplification on HSR: did not show any significant difference
  MYC amplification on ecDNA: dramatic increase; also recorded: significant increase

## CC(=O)O[C@H]1C(=O)[C@@]2(C)[C@H]([C@H](OC(=O)c3ccccc3)[C@]3(O)C[C@H](OC(=O)[C@H](O)[C@@H](NC(=O)c4ccccc4)c4ccccc4)C(C)=C1C3(C)C)[C@]1(OC(C)=O)CO[C@@H]1C[C@@H]2O [paclitaxel]
[2]; FISH, vs untreated controls
  copy number of the ABCB1 transporter amplified ecDNA: marked increase
[2]; qPCR, vs untreated control
  gene copy number for the ABCB1 transporter: dramatically higher; also recorded: significant increase
[3]; PCR with a panel of genes, paclitaxel-treated cells
  amplification of various genes: highest amount of amplification was seen with ABCB1
[3]; paclitaxel resistant cells, metaphase FISH
  copy number of ecDNA harboring the ABCB1 drug efflux pump: high copy number

## CCN1CCN(c2ccc(Nc3cc(N(C)C(=O)Nc4c(Cl)c(OC)cc(OC)c4Cl)ncn3)cc2)CC1 [infigratinib]
[4]; after about 10 days of treatment
  copy number of FGFR2: reduced dramatically
[4]; treatment over about 80 days
  copy number of EGFR: rapidly increased
  copy number of MYC: rapidly increased
[5]; compared to vehicle, over 50 days, infigratinib 15 mg/kg PO QD, ecDTx CHK1 inhibitor 20 mg/kg SQ Q2D
  tumor growth: decreased tumor growth
[5]; later time points of 50 days, infigratinib 15 mg/kg PO QD
  trend at the later time points (resistance): suggested resistance was beginning to develop
[5]; [6]
  copy number of FGFR2 in the tumors: dramatically higher than the other groups
  copy number of MYC in the tumors: relatively similar
Gastric cancer CDX model
  FGFR2 expression in the tumors: markedly increased
  MYC expression in the tumors: similar
  copy number of FGFR2 in the tumors: dramatically higher than the other groups
  copy number of MYC in the tumors: relatively similar
